Results published in PubChem BioAssay (NCI).
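Method: 48-hour compound exposure of cells in 96-well plates, five concentrations, linear interpolation of endpoints. TGI marks complete inhibition of growth.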

What was measured:
Test in all cases: inhibition of tumour cell growth, NCI panel, 48 h
EKVX NSCLC = test system: EKVX NSCLC
HCT-15 colon = test system: HCT-15 colon
M14 melanoma = test system: M14 melanoma
NCI-H460 lung = test system: NCI-H460 lung
NCI-H522 lung = test system: NCI-H522 lung
OVCAR-4 ovarian = test system: OVCAR-4 ovarian
OVCAR-8 ovarian = test system: OVCAR-8 ovarian
SW-620 colon = test system: SW-620 colon
U251 CNS = test system: U251 CNS
UACC-62 melanoma = test system: UACC-62 melanoma

Row | Structure (SMILES) | TGI (EKVX NSCLC) | TGI (HCT-15 colon) | TGI (M14 melanoma) | TGI (NCI-H460 lung) | TGI (NCI-H522 lung) | TGI (OVCAR-4 ovarian) | TGI (OVCAR-8 ovarian) | TGI (SW-620 colon) | TGI (U251 CNS) | TGI (UACC-62 melanoma)
1 | S=C1NC2=C(CSC/C2=C\c2ccccc2)C(c2ccccc2)N1 (stereo not drawn) | > 100 µM | > 100 µM | > 100 µM | > 100 µM | > 100 µM | > 100 µM | > 100 µM | > 100 µM | > 100 µM | > 100 µM
2 | CC(C)C1=C(O)C2=C(C(=O)C1=O)C1(C)CCCC(C)(C)C1C(O)C2OC=O (stereo not drawn) | 21.7 µM | 16.4 µM | 29.1 µM | 12.7 µM | 27.5 µM | 22.8 µM | 20.1 µM | 13.1 µM | 17.1 µM | 19.4 µM
3 | CC1(C)OC2COC3([C@@H]4OC(C)(C)O[C@@H]4CO)OC(C)(C)OC3C2O1 (stereo partly drawn) | > 100 µM | > 100 µM | > 100 µM | > 100 µM | – | > 100 µM | > 100 µM | > 100 µM | > 100 µM | > 100 µM
4 | Clc1nncc2sc(-c3ccccc3)nc12 | 12.5 µM | 36.4 µM | 52.3 µM | > 57.7 µM | 44.8 µM | 53.5 µM | 59.3 µM | 61.3 µM | > 53.2 µM | 46.4 µM
5 | O=S1SC(=S)C2C=CC=CC21 (stereo not drawn) | > 100 µM | > 100 µM | > 100 µM | > 100 µM | > 100 µM | > 100 µM | > 100 µM | > 100 µM | > 100 µM | > 100 µM
6 | CSc1nc2c(ncn2C2OC(CO)C(O)C(O)C2O)c(=O)[nH]1 (stereo not drawn) | > 100 µM | > 100 µM | – | > 100 µM | > 100 µM | > 100 µM | > 100 µM | > 100 µM | > 100 µM | > 100 µM
7 | C=C1C(=O)C23C(O)CC4C5(C)CCCC4(C(O)OC5)C2C(OC(C)=O)CC1C3O (stereo not drawn) | 27.7 µM | 27.4 µM | 15.1 µM | 15.9 µM | 3.64 µM | 27.8 µM | 14.1 µM | 10.6 µM | 30.7 µM | 19.8 µM
8 | O=C1CS(=O)(=O)C(c2cccc(Oc3ccccc3)c2)N1c1cc(Cl)ccc1Cl (stereo not drawn) | > 100 µM | 69.9 µM | 43.1 µM | 53.5 µM | 56 µM | – | 43.9 µM | > 100 µM | 29.1 µM | 31.9 µM
9 | CCN1C(=O)C(=C/C=C/c2ccc(N(CC)CC)cc2)C(=O)N(CC)C1=S | > 100 µM | > 100 µM | > 100 µM | > 100 µM | – | > 100 µM | > 100 µM | > 100 µM | > 100 µM | > 100 µM
10 | COc1ccc(N2C(=O)C3c4[nH]c5ccccc5c4C4CCCCCCCCCC4C3C2=O)cc1 (stereo not drawn) | > 10 µM | > 10 µM | > 10 µM | > 10 µM | > 10 µM | > 10 µM | > 10 µM | > 10 µM | > 10 µM | > 10 µM
11 | O=C(NN1C(=O)CSC1c1cccc(F)c1)c1ccncc1 (stereo not drawn) | > 100 µM | > 100 µM | > 100 µM | – | > 100 µM | > 100 µM | > 100 µM | > 100 µM | > 100 µM | > 100 µM
12 | CON(C)C(=O)C1CCCO1 (stereo not drawn) | > 100 µM | > 100 µM | > 100 µM | > 100 µM | > 100 µM | > 100 µM | > 100 µM | > 100 µM | > 100 µM | > 100 µM
13 | O=C1C=CC(=O)C(CNc2ccc(C(=O)OCc3ccccc3)cc2)=C1 | 23.7 µM | 9.1 µM | 20.8 µM | 38.9 µM | 2.87 µM | 10.4 µM | 16.8 µM | 19.6 µM | 19.9 µM | 22.6 µM
14 | C=CC(=O)N1C/C(=C\c2ccc(Cl)cc2)C(=O)/C(=C/c2ccc(Cl)cc2)C1 | 4.72 µM | 0.497 µM | 0.735 µM | 1.18 µM | – | 1.22 µM | 3.84 µM | 0.887 µM | 0.983 µM | 1.02 µM
15 | CCOC(=O)NC(Nc1c(F)c(F)c(F)c(F)c1F)(C(F)(F)F)C(F)(F)F | > 100 µM | > 100 µM | > 100 µM | > 100 µM | > 100 µM | – | > 100 µM | > 100 µM | > 100 µM | > 100 µM
16 | O=[N+]([O-])c1cccc2c(N=Nc3ccc4ccccc4c3O)c(O)cc(S(=O)(=O)O)c12 | > 100 µM | > 100 µM | 51.2 µM | – | > 100 µM | > 100 µM | > 100 µM | > 100 µM | > 100 µM | > 100 µM
17 | COC(=O)C1(O)C(c2ccccc2)=NC2(C)CCCC21 (stereo not drawn) | – | > 100 µM | > 100 µM | > 100 µM | > 100 µM | > 100 µM | > 100 µM | > 100 µM | > 100 µM | > 100 µM
18 | COc1ccc(C2c3cc4c(cc3OC(NCCO)C2C)OCO4)cc1 (stereo not drawn) | 92.5 µM | 54.4 µM | 84.6 µM | 63.6 µM | 47.8 µM | – | – | > 100 µM | 54.9 µM | > 100 µM
19 | Cc1cc(C)c(/C=C(\C(=C/c2c(C)cc(C)cc2C)[N+](=O)[O-])[N+](=O)[O-])c(C)c1 | > 100 µM | – | > 100 µM | > 100 µM | – | > 100 µM | – | > 100 µM | > 100 µM | > 100 µM
20 | O=C(O)CCCCCCCCC(=O)O | > 500 µM | > 500 µM | – | > 500 µM | > 500 µM | > 500 µM | > 500 µM | > 500 µM | > 500 µM | > 500 µM
21 | CC1=NNC(=O)C1C1CC(c2c[nH]c3ccccc23)=NN=C1Cl (stereo not drawn) | > 100 µM | > 100 µM | > 100 µM | > 100 µM | > 100 µM | – | > 100 µM | > 100 µM | > 100 µM | > 100 µM
22 | O=[N+]([O-])c1ccc2c(c1)c(N=NC(=S)Nc1ccc(Cl)cc1)c(O)n2CN1CCOCC1 | – | 11.4 µM | 21.7 µM | 20.3 µM | 23.2 µM | 21.6 µM | 23.4 µM | 30.8 µM | 20.1 µM | 17.7 µM
